# Tests used:
# Format in all cases: physicochemical
# [1] = Solubility in aqueous solution (comparative statement)
# [2] = Comparative in vitro dissolution test, 50 rpm paddle speed; details: for Average % Olanzapine Release (n = 3): USP Apparatus 2, 50 rpm, 0.05% CTAB pH 6.8 USP buffer, 37° C., 1000 mL
# Method: In-vitro dissolution testing was performed to compare the olanzapine release rates for olanzapine pamoate monohydrate and the olanzapine pamoate dihydrate.
# [3] = In vitro dissolution test at higher paddle speed (100 rpm); details: 100 rpm paddle speed, 0.05% CTAB pH 6.8 USP buffer, 37° C.
# Method: Another dissolution experiment was performed in order to ensure that the media conditions used to generate the profiles in Table 4 were not solubility limiting. This experiment was performed using the same samples and media conditions but at a higher paddle speed to provide the data listed in Table 5.
SMILES,Solubility in aqueous solution compared with olanzapine pamoate monohydrate [1],Average % Olanzapine Release (n = 3) ([2]; 0.25 hr),Average % Olanzapine Release (n = 3) ([2]; 0.5 hr),Average % Olanzapine Release (n = 3) ([2]; 0.75 hr),Average % Olanzapine Release (n = 3) ([2]; 1 hr),Average % Olanzapine Release (n = 3) ([2]; 2 hrs),Average % Olanzapine Release (n = 3) ([2]; 4 hrs),Average % Olanzapine Release (n = 3) ([2]; 6 hrs),Average % Olanzapine Release (n = 3) ([2]; 24 hrs),"Release rate of olanzapine compared with olanzapine pamoate monohydrate ([2]; aqueous conditions of Table 3, 50 rpm)",% Olanzapine Release (n = 1) ([3]; 24 hrs),% Olanzapine Release (n = 1) ([3]; 36 hrs)
"Cc1cc2c(s1)Nc1ccccc1N=C2N1CCN(C)CC1.O.O.O=C(O)c1cc2ccccc2c(Cc2c(O)c(C(=O)O)cc3ccccc23)c1O [Olanzapine Pamoate Dihydrate, 2-methyl-4-(4-methyl-1-piperazinyl)-10H-thieno[2,3-b][1,5]benzodiazepine pamoate dihydrate]",substantially less soluble in aqueous solution than olanzapine pamoate monohydrate,19%,26%,30%,33%,40%,45%,47%,59%,substantially lower release rate of olanzapine than the olanzapine pamoate monohydrate,95%,97%
"Cc1cc2c(s1)Nc1ccccc1N=C2N1CCN(C)CC1.O=C(O)c1cc2ccccc2c(Cc2c(O)c(C(=O)O)cc3ccccc23)c1O [Olanzapine Pamoate Monohydrate, 2-methyl-4-(4-methyl-1-piperazinyl)-10H-thieno[2,3-b][1,5]benzodiazepine pamoate, reference compound]",–,27%,39%,46%,52%,62%,73%,77%,83%,–,99%,99%

# — patent publication US7932249B2, “Olanzapine pamoate dihydrate” (Eli Lilly and Company, priority 2005, dated 2011)
